Source: ChEMBL document CHEMBL5506053, “Explorations of Agonist Selectivity for the α9* nAChR with Novel Substituted Carbamoyl/Amido/Heteroaryl Dialkylpiperazinium Salts and Their Therapeutic Implications in Pain and Inflammation” (J Med Chem, 2024)
The source made the active and inactive calls.

Legend:
[1] = target: T1, Neuronal acetylcholine receptor; alpha3/beta4 (Homo sapiens) (UniProt P30926+P32297); assay: (§1) Inhibition of acetylcholine induced response in human alpha3beta4 nAChR expressed in xenopus laevis oocytes assessed as fold change at 100 uM preincubated with 3 uM acetylcholine followed by compound administration for 12 sec and measured 181 sec post washout by two-electrode voltage-clamp electrophysiology method relative to acetylcholine alone; format: cell-based; conditions: Oocyte
[2] = tested on: PBMC; assay: Inhibition of ATP-mediated IL-1beta release in LPS primed BzATP induced human PBMC cells at 100 uM primed with LPS for 3 hrs followed by BzATP and compound addition for 30 mins by ELISA; format: functional, cell-based
[3] = tested on: Oocyte; assay: Agonist activity at mouse muscle alpha1beta1epsilondelta nAChR expressed in xenopus laevis oocytes at 30 uM measured after 120 secs by two-electrode voltage-clamp electrophysiology method relative to control; format: cell-based; conditions: time 120.0 sec
[4] = tested on: Oocyte; assay: as §1, with “mouse muscle alpha1beta1epsilondelta” for “human alpha3beta4”, “30” for “100”; format: cell-based
[5] = Toxicity in C57BL/6J mouse assessed as effect on locomotor activity at 20 mg/kg, ip measured after 6 hrs; conditions: in vivo
[6] = Plasma protein binding in human; format: ADME, cell-free
[7] = tested on: Mus musculus; assay: Antiinflammatory activity in CFA-treated C57BL/6J mouse model assessed as reduction in paw edema at 20 mg/kg, ip measured after 6 hrs
[8] = target: T2, Neuronal acetylcholine receptor; alpha4/beta2 (Homo sapiens) (UniProt P17787+P43681); assay: Agonist activity at human alpha4beta2 nAChR expressed in xenopus laevis oocytes at 30 uM measured after 120 secs by two-electrode voltage-clamp electrophysiology method relative to control; format: cell-based; conditions: Oocyte, time 120.0 sec
[9] = Metabolic stability in pooled BALB/c mouse plasma at 1 uM measured after 0 to 120 mins by UPLC-MS/MS analysis; format: ADME, cell-free; conditions: time 0-120 min
[10] = target: T1, Neuronal acetylcholine receptor; alpha3/beta4 (Homo sapiens); assay: Agonist activity at human alpha3beta4 nAChR expressed in xenopus laevis oocytes at 100 uM measured after 120 secs by two-electrode voltage-clamp electrophysiology method relative to control; format: cell-based; conditions: Oocyte, time 120.0 sec
[11] = Apparent permeability across basolateral to apical side in human Caco-2 cells at pH 7.4 at 5 ug/ml measured after 2 hrs by UPLC-MS/MS analysis; format: ADME, cell-based; conditions: caco-2, pH 7.4, 2 h, dose 5 µg/ml
[12] = Metabolic stability in pooled BALB/c mouse plasma assessed as compound remaining at 1 uM measured after 0 to 120 mins by UPLC-MS/MS analysis; format: ADME, cell-free; conditions: time 0-120 min
[13] = target: T3, Neuronal acetylcholine receptor subunit alpha-7 (Homo sapiens, UniProt P36544); assay: Agonist activity at human alpha7 nAChR expressed as xenopus laevis oocytes assessed as increase in receptor desensitization by measuring fold change in peak current response at 30 uM incubated for 120 secs presence of PNU-120596 by two-electrode voltage-clamp electrophysiology method relative to acetylcholine; format: cell-based; conditions: Oocyte, filed as agonist, time 120.0 sec
T3 sequence (P36544 whole entry): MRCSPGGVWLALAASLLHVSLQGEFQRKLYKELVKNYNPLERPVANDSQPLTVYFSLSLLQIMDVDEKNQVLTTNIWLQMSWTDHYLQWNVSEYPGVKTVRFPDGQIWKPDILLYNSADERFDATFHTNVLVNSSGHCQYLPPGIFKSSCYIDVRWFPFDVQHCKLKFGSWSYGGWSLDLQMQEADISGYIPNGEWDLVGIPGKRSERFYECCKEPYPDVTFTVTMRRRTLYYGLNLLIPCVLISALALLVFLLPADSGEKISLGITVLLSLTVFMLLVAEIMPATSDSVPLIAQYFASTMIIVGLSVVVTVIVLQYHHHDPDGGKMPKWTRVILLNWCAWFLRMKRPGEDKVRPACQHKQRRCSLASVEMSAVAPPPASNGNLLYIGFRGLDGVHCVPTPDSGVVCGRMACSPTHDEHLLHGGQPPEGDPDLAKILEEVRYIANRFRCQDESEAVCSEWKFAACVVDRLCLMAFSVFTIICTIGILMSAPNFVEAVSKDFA

[14] = tested on: THP-1; assay: Cytotoxicity against monocytic human THP-1 cells assessed as effect on lactate dehydrogenase activity in supernatant; format: toxicity, cell-based
[15] = target: T2, Neuronal acetylcholine receptor; alpha4/beta2 (Homo sapiens); assay: as §1, with “alpha4beta2” for “alpha3beta4”, “30” for “100”; format: cell-based; conditions: Oocyte
[16] = Apparent permeability across basolateral to apical side in human Caco-2 cells at pH 6.8 at 5 ug/ml measured after 2 hrs by UPLC-MS/MS analysis; format: ADME, cell-based; conditions: caco-2, pH 6.8, 2 h, dose 5 µg/ml
[17] = tested on: Mus musculus; assay: Antinociceptive activity in sham-treated C57BL/6J mouse model assessed as effect on von Frey response at 20 mg/kg, ip measured after 1 to 72 hrs; format: functional, organism-based; conditions: time 1-72 hrs
[18] = tested on: THP-1; assay: Induction of IL-1beta release in LPS primed monocytic human THP-1 cells at 10 uM primed with LPS for 5 hrs followed by compound addition and further incubated for 40 mins by ELISA; format: functional, cell-based
[19] = target: T3, Neuronal acetylcholine receptor subunit alpha-7; assay: Partial agonist activity at human alpha7 nAChR expressed as xenopus laevis oocytes assessed as increase in receptor desensitization by measuring fold change in maximum response (Imax) measured after 120 secs by two-electrode voltage-clamp electrophysiology method relative to acetylcholine; format: cell-based; conditions: Oocyte, filed as partial agonist, time 120.0 sec
[20] = target: Neuronal acetylcholine receptor subunit alpha-9 (Homo sapiens, UniProt Q9UGM1); assay: Agonist activity at human alpha9 nAChR expressed as xenopus laevis oocytes assessed as increase in receptor desensitization by measuring fold change in maximum response (Imax) measured after 120 secs by two-electrode voltage-clamp electrophysiology method relative to acetylcholine; format: cell-based; conditions: Oocyte, filed as agonist, time 120.0 sec
Chain of Neuronal acetylcholine receptor subunit alpha-9 (Q9UGM1 whole entry): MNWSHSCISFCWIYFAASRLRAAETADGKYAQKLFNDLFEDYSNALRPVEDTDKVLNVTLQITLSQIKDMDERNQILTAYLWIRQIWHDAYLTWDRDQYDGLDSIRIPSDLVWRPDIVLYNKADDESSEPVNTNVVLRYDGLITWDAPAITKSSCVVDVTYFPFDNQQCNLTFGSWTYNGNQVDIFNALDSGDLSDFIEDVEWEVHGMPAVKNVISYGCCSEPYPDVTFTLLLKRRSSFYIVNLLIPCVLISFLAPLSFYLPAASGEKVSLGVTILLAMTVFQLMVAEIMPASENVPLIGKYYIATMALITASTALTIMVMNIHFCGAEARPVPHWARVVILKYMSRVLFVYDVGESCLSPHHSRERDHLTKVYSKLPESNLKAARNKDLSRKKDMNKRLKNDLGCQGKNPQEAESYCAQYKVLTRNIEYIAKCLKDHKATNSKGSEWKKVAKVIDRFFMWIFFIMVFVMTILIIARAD

[21] = Apparent permeability across apical to basolateral side in human Caco-2 cells at pH 7.4 at 5 ug/ml measured after 2 hrs by UPLC-MS/MS analysis; format: ADME, cell-based; conditions: caco-2, pH 7.4, 2 h, dose 5 µg/ml
[22] = target: Neuronal acetylcholine receptor; alpha9/alpha10 (Homo sapiens) (UniProt Q9UGM1+Q9GZZ6); assay: Agonist activity at human alpha9alpha10 nAChR expressed as xenopus laevis oocytes assessed as increase in receptor desensitization by measuring fold change in maximum response (Imax) measured after 120 secs by two-electrode voltage-clamp electrophysiology method relative to acetylcholine; format: cell-based; conditions: Oocyte, filed as agonist, time 120.0 sec
[23] = Apparent permeability across apical to basolateral side in human Caco-2 cells at pH 6.8 at 5 ug/ml measured after 2 hrs by UPLC-MS/MS analysis; format: ADME, cell-based; conditions: caco-2, pH 6.8, 2 h, dose 5 µg/ml
[24] = tested on: Mus musculus; assay: Antinociceptive activity in complete freund's adjuvant induced inflammatory pain in C57BL/6J mouse model assessed as increase in mechanical pain threshold at 20 mg/kg, ip pretreated with CFA for 3 days followed by compound treatment and measured after 1 to 72 hrs; format: functional, organism-based; conditions: time 1-72 hrs
[25] = Apparent permeability across apical to basolateral side in human Caco-2 cells at pH 5 at 5 ug/ml measured after 2 hrs by UPLC-MS/MS analysis; format: ADME, cell-based; conditions: caco-2, pH 5, 2 h, dose 5 µg/ml
[26] = tested on: PBMC; assay: Inhibition of ATP-mediated IL-1beta release in LPS primed BzATP induced human PBMC cells at 100 fM primed with LPS for 3 hrs followed by BzATP and compound addition for 30 mins by ELISA; format: functional, cell-based
[27] = Apparent permeability across basolateral to apical side in human Caco-2 cells at pH 5 at 5 ug/ml measured after 2 hrs by UPLC-MS/MS analysis; format: ADME, cell-based; conditions: caco-2, pH 5, 2 h, dose 5 µg/ml
[28] = tested on: Mus musculus; assay: Antinociceptive activity in complete freund's adjuvant induced inflammatory pain in C57BL/6J mouse model assessed as increase in mechanical pain threshold at 10 mg/kg, ip pretreated with CFA for 3 days followed by compound treatment and measured after 5 days; format: functional, organism-based; conditions: time 5.0 day
[29] = tested on: Mus musculus; assay: Antinociceptive activity in complete freund's adjuvant induced inflammatory pain in alpha7 nAChR knockout C57BL/6J mouse model assessed as increase in mechanical pain threshold at 10 mg/kg, ip pretreated with CFA for 3 days followed by compound treatment and measured after 6 hrs; format: functional, organism-based
[30] = tested on: Mus musculus; assay: Antinociceptive activity in complete freund's adjuvant induced inflammatory pain in C57BL/6J mouse model assessed as increase in mechanical pain threshold at 2 mg/kg, ip pretreated with CFA for 3 days followed by compound treatment and measured after 6 to 24 hrs; format: functional, organism-based; conditions: time 6-24 hrs
[31] = target: T3, Neuronal acetylcholine receptor subunit alpha-7; assay: Agonist activity at human alpha7 nAChR expressed as xenopus laevis oocytes assessed as increase in receptor desensitization by measuring fold change in maximum response (Imax) measured after 120 secs by two-electrode voltage-clamp electrophysiology method relative to acetylcholine; format: cell-based; conditions: Oocyte, filed as agonist, time 120.0 sec
[32] = tested on: Mus musculus; assay: Antiinflammatory activity in CFA-treated C57BL/6J mouse model assessed as reduction in paw edema at 10 mg/kg, ip measured after 6 hrs
[33] = tested on: Mus musculus; assay: Antinociceptive activity in complete freund's adjuvant induced inflammatory pain in C57BL/6J mouse model assessed as increase in mechanical pain threshold at 10 mg/kg, ip pretreated with CFA for 3 days followed by compound treatment and measured after 1 to 24 hrs; format: functional, organism-based; conditions: time 1-24 hrs
[34] = tested on: Mus musculus; assay: Antinociceptive activity in complete freund's adjuvant induced inflammatory pain in C57BL/6J mouse model harboring wild type alpha7 nAChR assessed as increase in mechanical pain threshold at 10 mg/kg, ip pretreated with CFA for 3 days followed by compound treatment and measured after 6 hrs; format: functional, organism-based
[35] = tested on: Mus musculus; assay: Antinociceptive activity in complete freund's adjuvant induced inflammatory pain in C57BL/6J mouse model assessed as increase in mechanical pain threshold at 10 mg/kg, ip pretreated with CFA for 3 days followed by compound treatment and measured after 72 hrs; format: functional, organism-based
[36] = tested on: Mus musculus; assay: Antinociceptive activity in sham-treated C57BL/6J mouse model assessed as effect on von Frey response at 10 mg/kg, ip measured after 5 days; format: functional, organism-based; conditions: time 5.0 day
[37] = Toxicity in C57BL/6J mouse assessed as effect on locomotor activity at 10 mg/kg, ip measured after 6 hrs; format: organism-based; conditions: in vivo

| Structure (SMILES) | fold change (FC) [1] | Activity [3] | fold change (FC) [4] | PPB [6] | Activity [8] | Stability [9] | Activity [10] | Papp [11] | Stability [12] | fold change (FC) [13] | Activity [14] | fold change (FC) [15] | Papp [16] | Activity [18] | fold change (FC) [20] | Papp [21] | fold change (FC) [22] | Papp [23] | Papp [25] | Papp [27] | other results |
| --- | --- | --- | --- | --- | --- | --- | --- | --- | --- | --- | --- | --- | --- | --- | --- | --- | --- | --- | --- | --- | --- |
| CC[N+]1(C)CCN(c2ccc(C(=O)Nc3cccc(C)n3)cc2)CC1.[I-] | 0.849 | < 1% | 0.413 | 32% | < 1% | Stable | < 1% | 2.9 10^-6 cm/s | > 90% | 0.13 | Non-Toxic | 0.858 | 2.6 10^-6 cm/s | inactive | 1.19 | 2.2 10^-6 cm/s | 0.92 | 2.2 10^-6 cm/s | 1.9 10^-6 cm/s | 1.9 10^-6 cm/s | inhibition [2]: inactive; Activity [5]: Non-Toxic; Activity [7]: Active; Activity [17]: inactive; fold change (FC) [19]: 0.4; Activity [24]: Active; inhibition [26]: Active |
| CC[N+]1(C)CCN(c2ccc(NC(=O)c3cccc(C)n3)cc2)CC1.[I-] | 0.659 | < 1% | 0.558 | 54% | < 1% | Stable | < 1% | 3.1 10^-6 cm/s | > 90% | 111 | Non-Toxic | 1.05 | 3 10^-6 cm/s | inactive | 1.01 | 2.4 10^-6 cm/s | 1.04 | 2.8 10^-6 cm/s | 2.5 10^-6 cm/s | 2.9 10^-6 cm/s | Activity [28]: Active; Activity [29]: Active; Activity [30]: Active; fold change (FC) [31]: 0.41; Activity [32]: Active; Activity [33]: Active; Activity [34]: Active; Activity [35]: inactive; Activity [36]: inactive; Activity [37]: Non-Toxic |
